For 30 compounds, IC50 results are on record in US9249158B2, “Cytomegalovirus inhibitor compounds” (Boehringer Ingelheim International GmbH, priority 2012, dated 2016).

pIC50: −log10 of the molar value.

For orientation: pIC50 means −log10 of the IC50, conventionally taken in molar units.

T1 sequence (P08546 whole entry): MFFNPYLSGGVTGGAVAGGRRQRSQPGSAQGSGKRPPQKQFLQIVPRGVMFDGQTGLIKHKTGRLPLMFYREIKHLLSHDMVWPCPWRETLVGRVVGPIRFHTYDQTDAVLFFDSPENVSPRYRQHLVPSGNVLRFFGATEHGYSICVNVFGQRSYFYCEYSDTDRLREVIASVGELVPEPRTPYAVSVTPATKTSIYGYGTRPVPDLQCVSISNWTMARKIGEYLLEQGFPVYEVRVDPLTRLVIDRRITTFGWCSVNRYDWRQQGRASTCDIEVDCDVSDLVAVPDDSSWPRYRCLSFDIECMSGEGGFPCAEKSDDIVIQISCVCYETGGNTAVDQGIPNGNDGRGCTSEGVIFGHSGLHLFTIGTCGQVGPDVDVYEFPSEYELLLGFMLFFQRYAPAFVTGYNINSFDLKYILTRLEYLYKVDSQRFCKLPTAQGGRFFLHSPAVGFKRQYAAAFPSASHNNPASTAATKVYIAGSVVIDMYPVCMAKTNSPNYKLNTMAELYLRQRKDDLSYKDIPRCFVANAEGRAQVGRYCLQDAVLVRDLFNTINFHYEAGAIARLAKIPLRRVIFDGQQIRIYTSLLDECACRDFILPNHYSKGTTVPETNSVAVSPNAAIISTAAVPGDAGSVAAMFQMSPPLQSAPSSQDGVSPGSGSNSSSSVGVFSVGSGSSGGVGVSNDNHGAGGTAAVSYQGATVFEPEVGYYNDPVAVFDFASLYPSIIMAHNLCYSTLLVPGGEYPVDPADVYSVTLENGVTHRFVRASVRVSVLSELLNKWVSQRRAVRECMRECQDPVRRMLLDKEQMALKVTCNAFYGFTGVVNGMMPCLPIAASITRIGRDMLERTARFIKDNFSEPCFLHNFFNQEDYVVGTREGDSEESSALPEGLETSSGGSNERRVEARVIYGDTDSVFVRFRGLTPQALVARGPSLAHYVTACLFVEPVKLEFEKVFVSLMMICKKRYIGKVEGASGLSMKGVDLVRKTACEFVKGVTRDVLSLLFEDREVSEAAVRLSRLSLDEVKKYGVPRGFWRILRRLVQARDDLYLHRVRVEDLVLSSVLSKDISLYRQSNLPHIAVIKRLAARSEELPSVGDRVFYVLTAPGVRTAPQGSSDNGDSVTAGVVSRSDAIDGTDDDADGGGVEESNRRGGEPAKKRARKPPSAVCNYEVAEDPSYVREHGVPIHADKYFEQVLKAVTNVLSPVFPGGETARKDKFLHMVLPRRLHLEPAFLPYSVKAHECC

The first experiment concerns the target T1, purified recombinant HCMV polymerase (UL54) (Human cytomegalovirus, UniProt P08546).
T1 construct: made in house; host or cells: Sf21 insect cells (baculovirus)
Description: HCMV Polymerase LANCE TR-FRET Assay. The class given is biochemical.
Conditions: not given
Here is the method: The codon optimized UL54 HCMV polymerase gene for expression in insect cells is obtained from DNA 2.0 (Menlo Park, Calif.) and subcloned in 3′ of the Glutathione-S-transferase (GST) gene in a pFastBac-derived vector. Bacmids and baculoviruses are generated and expression performed in Sf21 insect cells cultured in SF900 II SFM media. Infection using the baculoviruses is performed using an MOI of 5-10 and the cells are harvested 48 h post-infection and frozen.
All purification procedures are performed at 4° C. The cell pellet from 1 L of culture (1×10^9 cells) is resuspended in 25 mL of 50 mM Tris pH 7.5, 1 mM TCEP, 0.1 mM EDTA, 150 mM NaCl, 10% Glycerol, 1 mM PMSF, 2 μg/mL Leupeptin, 2 μg/mL Antipain, 2 μg/mL Pepstatin A. The solution is homogenized using a Dounce tissue grinder. Following homogenization, the volume is increased to 40 mL followed by centrifugation at 750×g for 5 min to remove nuclei. The supernatant is then transferred and 3 cc of 50% slurry of glutathione-sepharose 4B resin is added. The mixture is incubated on a rotator for 1 h. The slurry is centrifuged at 500 g for 5 min. The supernatant is discarded and the pellet is resuspended in 10× volume of wash buffer (50 mM Tris pH 7.5, 1 mM TCEP, 0.1 mM EDTA, 150 mM NaCl, 10% Glycerol) and incubated for 5 min. The slurry is centrifuged at 500 g for 5 min and the supernatant is discarded. The wash step is performed 5 times. The elution is performed by adding 1.5 volume of elution buffer (50 mM Tris pH 7.5, 1 mM TCEP, 0.1 mM EDTA, 150 mM NaCl, 10% Glycerol, 20 mM glutathione) and incubating on a rotator for 15 min. The slurry is centrifuged at 500 g for 5 min and the supernatant is removed and kept. The elution step is performed four times. The supernatants are pooled and centrifuged at 500×g for 5 min to remove resin particles and frozen at −80° C.
The frozen protein is thawed and the NaCl concentration reduced to 37.5 mM by the addition of 3 volumes of DEAE buffer A (50 mM Tris pH 7.5, 1 mM TCEP, 0.1 mM EDTA, 10% Glycerol). The protein is loaded on a HiTrap DEAE-Sepharose μF column and eluted using a gradient with DEAE buffer B (50 mM Tris pH 7.5, 1 mM TCEP, 0.1 mM EDTA, 10% Glycerol, 1 M NaCl). UL54 eluted at 140 mM NaCl. The DEAE fractions are pooled, frozen and stored at −80° C. The protein concentration is determined by OD280 (A280=1.03 mg/mL).
This non-radiometric assay determines the enzymatic activity of purified recombinant HCMV polymerase (UL54) using a Digoxigenin-labeled oligonucleotide priming a heteropolymeric template. The enzymatic activity is determined by incorporating Biotin-dUTP in the nascent complementary strand. The signal is generated by Fluorescence Resonance Energy Transfer from the donor (Anti-Digoxigenin-Europium Chelate binding with the primer) to the acceptor Streptavidin-AlloPhycoCyanin (SA-APC) binding to the biotin of the labeled nucleotides incorporated in proximity.
Serial dilutions of the DMSO stock compound solution are performed using DMSO in columns 2-11 and 14-23. DMSO alone is present in columns 1, 12, 13 and 24. The plate is centrifuged at 200×g for 30 sec. 35 μL of compound dilution buffer (10 mM Hepes pH 7.5, 25 mM KCl, 5 mM MgCl2, 1 mM TCEP) is added to 5 μL of the diluted compound in DMSO to obtain 12.5% DMSO. 4 μL per well of the 12.5% DMSO serial dilution compound solution is added to the assay plate.
The assay conditions are the following: 10 mM HEPES pH 7.5, 25 mM KCl, 7.5 mM NaCl, 5 mM MgCl2, 0.2 mg BSA/mL, 1 mM TCEP, 1.5% glycerol, 5% DMSO, 235 nM dATP, 350 nM dCTP, 350 nM dGTP, 235 nM dTTP, 12 nM biotin-16-dUTP, 23.5 nM Dig-primer/template, 2 nM GST-UL54. The assay volume is 10 μL. […]
On the technique in general: In TR-FRET formats the signal depends on donor and acceptor labels being close together.
In the case of `Cc1cc(Cl)ccc1CNC(=O)c1cc2c3c(cnc2n(CC(=O)N2CC(C)(F)C2)c1=O)nc(C)n3C` [Compound 5038], the pIC50 is 6.85.

The same experiment, now with this note: 2 nM GST-UL54, 37° C. for 30 min, 5% DMSO; read-out: Example 34 IC50.
Take `Cc1nc2cnc3c(cc(C(=O)NCc4ccc(Cl)cc4)c(=O)n3CC(=O)N3CC(C)(F)C3)c2nc1C` [Compound 5037]: the pIC50 is 6.36. On the same count and under the same terms, to `Cn1cc(N2CCOc3c2cnc2c3cc(C(=O)NCc3ccc(Cl)cc3)c(=O)n2CC(=O)N2CC(C)(F)C2)cn1` [Compound 5015] belongs 6.70; to `Cc1nc2cnc3c(cc(C(=O)NCc4ccc(Cl)cc4)c(=O)n3CC(=O)N3CC(F)(CO)C3)c2n1C` [Compound 1065], 7.46; to `Cc1nc2cnc3c(cc(C(=O)NCc4ccc(Cl)cc4)c(=O)n3CC(=O)N3CC(C)(F)C3)c2n1C` [Compound 1002], 7.42. For the compound `CN(C)c1nc2c3cc(C(=O)NCc4ccc(Cl)cc4)c(=O)n(CC(=O)N4CC(C)(F)C4)c3ncc2n1C` [Compound 2017], the negative-log IC50 (pIC50) was 6.68. On the same count and under the same terms, in the case of `COCc1nc2cnc3c(cc(C(=O)NCc4ccc(Cl)cc4)c(=O)n3CC(=O)N3CC(C)(F)C3)c2n1C` [Compound 1031] it was 7.24. On the same count and under the same terms, in the case of `Cn1c(N2CCOCC2)nc2cnc3c(cc(C(=O)NCc4ccc(Cl)cc4)c(=O)n3CC(=O)N3CC(C)(F)C3)c21` [Compound 1056] it was 6.96; in that of `CC1(F)CN(C(=O)Cn2c(=O)c(C(=O)NCc3ccc(Cl)cc3)cc3c4c(cnc32)ncn4CCO)C1` [Compound 1024], 7.54.

On to `Cc1cn(C)c2c1cnc1c2cc(C(=O)NCc2ccc(Cl)cc2)c(=O)n1CC(=O)N1CC(C)C1` [Compound 5007], for which the negative logarithm of the IC50 (pIC50) is 7.19.

As for `COc1nc2cnc3c(cc(C(=O)NCc4ccc(Cl)cc4)c(=O)n3CC(=O)N3CC(C)(C#N)C3)c2n1C` [Compound 1074], the negative-log IC50 (pIC50) was 7.12.

With `Cc1nc2cnc3c(cc(C(=O)NCc4ccc(C#N)cc4)c(=O)n3CC(=O)N3CC(C)(F)C3)c2n1C` [Compound 3001], the pIC50 is 6.85. Still for that read-out and setting: in the case of `COc1cc(CNC(=O)c2cc3c4c(cnc3n(CC(=O)N3CC(C)(F)C3)c2=O)nc(C)n4C)ccc1Cl` [Compound 5048] it was 6.77; in that of `CC1(F)CN(C(=O)Cn2c(=O)c(C(=O)NCc3ccc(Cl)cc3)cc3c4nc5n(c4cnc32)CCC5)C1` [Compound 5004], 7.11. On the same count and under the same terms, to `Cc1nc2cnc3c(cc(C(=O)NCc4ccc(Cl)cc4)c(=O)n3CC(=O)N3CC4(C3)NCC4(F)F)c2n1C` [Compound 1072] belongs 6.59. With `CC1(C)CN(C(=O)Cn2c(=O)c(C(=O)NCc3ccc(Cl)cc3)cc3c4c(cnc32)NCCN4)C1` [Compound 5021], the pIC50 is 6.48. Still for that read-out and setting: to `CC1(C)CN(C(=O)Cn2c(=O)c(C(=O)NCc3ccc(Cl)cc3)cc3c4c(cnc32)-c2ccccc2CO4)C1` [Compound 5012] belongs 6.80. Consider `CC1(F)CN(C(=O)Cn2c(=O)c(C(=O)NCc3ccc(Cl)cc3)cc3c4c(cnc32)nc2n4CCOC2)C1` [Compound 5002], for which the pIC50 is 7.16.

For the compound `COc1nc2c(cc(C(=O)NCc3ccc(Cl)cc3)c(=O)n2CC(=O)N2CC(C)(F)C2)c2c1nc(C)n2C` [Compound 5035], the negative-log IC50 (pIC50) was 6.62. On the same count and under the same terms, to `Cn1cc(-c2nc3cnc4c(cc(C(=O)NCc5ccc(Cl)cc5)c(=O)n4CC(=O)N4CC(C)(F)C4)c3n2C)cn1` [Compound 1016] belongs 7.13; to `CN(C)Cc1nc2cnc3c(cc(C(=O)NCc4ccc(Cl)cc4)c(=O)n3CC(=O)N3CC(C)(C)C3)c2n1C` [Compound 1070], 7.21; to `Cn1c(N2CCCC2=O)nc2cnc3c(cc(C(=O)NCc4ccc(Cl)cc4)c(=O)n3CC(=O)N3CC(C)(F)C3)c21` [Compound 1038], 7.11. With `Cc1nc2c3cc(C(=O)NCc4ccc(C#N)cc4)c(=O)n(CC(=O)N4CC(C)C4)c3ncc2n1C` [Compound 4003], the pIC50 is 7.03. The same measure, in the same setting: in the case of `Cc1nc2cnc3c(cc(C(=O)NCc4ccc(Cl)cc4)c(=O)n3CC(=O)N3CC(F)(CF)C3)c2n1C` [Compound 1007] it was 7.32; in that of `Cn1c(=O)n(C)c2c3cc(C(=O)NCc4ccc(Cl)cc4)c(=O)n(CC(=O)N4CC(C)(F)C4)c3ncc21` [Compound 5006], 7.05; in that of `CC1(C)CN(C(=O)Cn2c(=O)c(C(=O)NCc3ccc(Cl)cc3)cc3c4c(cnc32)NC(C)(C)CO4)C1` [Compound 5022], 6.34.

`Cn1c(-n2ccnc2)nc2cnc3c(cc(C(=O)NCc4ccc(Cl)cc4)c(=O)n3CC(=O)N3CC(C)(F)C3)c21` [Compound 1061]: the negative logarithm of the IC50 (pIC50) is 7.22.

Turning to `CCn1cnc2cnc3c(cc(C(=O)NCc4ccc(Cl)cc4)c(=O)n3CC(=O)N3CC(C)(F)C3)c21` [Compound 1004], the pIC50 is 7.59.

On to `Cc1nc2cnc3c(cc(C(=O)NCc4ccc(Cl)c(O)c4)c(=O)n3CC(=O)N3CC(C)(F)C3)c2n1C` [Compound 5046], for which the pIC50 is 6.72. Still for that read-out and setting: in the case of `Cc1nc2cnc3c(cc(C(=O)NCc4ccc(Cl)cc4)c(=O)n3CC(=O)N(C)CC(C)(C)CO)c2n1C` [Compound 1073] it was 7.38.
